From US20250313553A1, “ANNULATED 2-AMINO-3-CYANO THIOPHENES AND DERIVATIVES FOR THE TREATMENT OF CANCER” (Boehringer Ingelheim Int'l GmbH Corp., priority 2021, published 2025)

Key:
NCI-H358 cells = assay: NCI-H358 CTG proliferation assay (120 h), assay 2; type: cell-based; conditions: Homo sapiens, 384-well, 200 cells per well
Method: NCI-H358 cells (ATCC No. CRL-5807) are dispensed into white bottom opaque 96 well plates (Perkin Elmer cat no. 5680) at a density of 2000 cells per well in 100 μL RPMI-1640 ATCC-Formulation (Gibco #A10491)+10% FCS (fetal calf serum) (assay 1) or into black 384-well plates, flat and clear bottom (Greiner, PNr. 781091) at a density of 200 cells per well in 60 μl RPMI-1640 ATCC-Formulation (Gibco #A10491)+10% FCS (fetal calf serum) (assay 2). […] Compounds (10 mM stock in DMSO) are added at logarithmic dose series using the HP Digital Dispenser D300 (Tecan) (assay 1) or the ECHO acoustic liquid handler system (Beckman Coulter) (assay 2), normalizing for added DMSO and including DMSO controls. For the T0 time point measurement, untreated cells are analyzed at the time of compound addition. Plates are incubated for 120 h, and cell viability is measured using CellTiter-Glo luminescent cell viability reagent (Promega product code G7570). Viability (stated as percent of control) is defined as relative luminescence units RLU of each well divided by the RLU of cells in DMSO controls. IC50 values are determined from viability measurements by non-linear regression using a four-parameter model.

AsPC-1 cells = assay: AsPC-1 CTG proliferation assay (120 h); type: cell-based; conditions: Homo sapiens, ASPC1, pancreatic cancer, G12D
Method: The CTG assay is designed to measure quantitatively the proliferation of AsPC-1 cells (ATCC […]), using the CellTiter Glow Assay Kit (Promega G7571). Cells are grown in RPMI medium (ATCC) supplemented with Fetal Calf Serum (Life Technologies, Gibco BRL, Cat. No. 10270-106). On “day 0” 2000 AsPC-1 cells are seeded in 60 μL RPMI ATCC+10% FCS+Penstrep in a 384-well plate, flat and clear bottom (Greiner, PNr. 781091). Cells are then incubated in the plates at 37° C. in a CO2 incubator overnight. On day 1, compounds (10 mM stock in DMSO) are added with the ECHO acoustic liquid handler system (Beckman Coulter), including DMSO controls. Plates are incubated for 120 h, and cell viability is measured using CellTiter-Glo luminescent cell viability reagent (Promega product code G7570). Viability (stated as percent of control) is defined as relative luminescence units RLU of each well divided by the RLU of cells in DMSO controls. IC50 values are determined from viability measurements by non-linear regression using a four-parameter model.

SAS cells = assay: SAS CTG proliferation assay (120 h); type: cell-based; conditions: HNSCC, wt amplified
Method: (§1) SAS cells (JCRB0260) are dispensed into 384-well plates, flat and clear bottom (Greiner, PNr. 781091) at a density of 300 cells per well in 60 μL DMEM:F12 (Gibco 31330-038)+10% Fetal Calf Serum (HyClone, PNr.: SH30084.03) and incubated at 37° C. in a CO2 incubator overnight. The next day, compounds (10 mM stock in DMSO) are added with the ECHO acoustic liquid handler system (Beckman Coulter), including DMSO controls. Plates are incubated for 120 h, and cell viability is measured using CellTiter-Glo luminescent cell viability reagent (Promega product code G7570). Viability (stated as percent of control) is defined as relative luminescence units RLU of each well divided by the RLU of cells in DMSO controls. IC50 values are determined from viability measurements by non-linear regression using a four-parameter model.

LOVO cells = assay: LOVO CTG proliferation assay (120 h); type: cell-based; conditions: Homo sapiens, CRC, G13D
Method: as §1, with “LOVO cells (ATCC” for “SAS cells (JCRB0260)”, “LOVO cells (ATCC CCL-229) are dispensed” for “SAS cells (JCRB0260) are dispensed”, “density of 1000 cells per” for “density of 300 cells per”, “60 μL DMEM (Sigma D6429)+10% Fetal Calf” for “60 μL DMEM:F12 (Gibco 31330-038)+10% Fetal Calf”

[1] = Plasma protein binding assay (PPB), equilibrium dialysis; type: in vitro ADME; conditions: bovine, 10% FCS in PBS, read-out: PPB 10% FCS (% fu)
Method: Binding of test compounds to plasma was determined using equilibrium dialysis (ED) and quantitative mass spectrometry interfaced with liquid chromatography (LC-MS). In brief, ED was performed with dialysis devices consisting of two chambers separated by a semipermeable membrane with a molecular weight cut-off of 5-10 kg/mol. One chamber was filled with 10% FCS in PBS containing 1-10 μmol/L test compound and the other chamber was filled with phosphate-buffer saline (PBS) with or without dextran. The dialysis chamber was incubated for 3-5 hours at 37° C. After incubation, protein was precipitated from aliquots of each chamber and the concentration of test compound in the supernatant of the plasma-containing compartment (cserum) and of the buffer-containing compartment (cbuffer) was determined by LC-MS. The fraction of unbound test compound (not bound to plasma) (fu) was calculated according to the following equation: […]

IC50 (NCI-H358 cells) [µM] | IC50 (AsPC-1 cells) [µM] | IC50 (LOVO cells) [µM] | fraction unbound [1] | Compound | IC50 (SAS cells) [µM]
0.937 | 7.24 | 8.47 | 0.21 | C[C@H]1CN(C)CCN1c1cccc(-c2noc([C@@]3(C)CCCc4sc(N)c(C#N)c43)n2)n1 [Example V-1] | 8.02
1.19 | – | – | – | CC(C)N1CCCN(c2nccc(-c3noc([C@@]4(C)CCCc5sc(N)c(C#N)c54)n3)n2)[C@@H](C)C1 [Example V-9] | –
0.23 | 3.95 | 1.43 | 0.51 | C[C@H](Oc1cccc(-c2noc([C@@]3(C)CCCc4sc(N)c(C#N)c43)n2)n1)[C@@H]1CCCN1C [Example V-8] | 3.1

Compound | IC50 (NCI-H358 cells) [µM] | IC50 (AsPC-1 cells) [µM] | IC50 (LOVO cells) [µM] | fraction unbound [1] | IC50 (SAS cells) [µM]
C[C@H](Oc1ccnc(-c2noc([C@@]3(C)CCCc4sc(N)c(C#N)c43)n2)n1)[C@@H]1CCCN1C [Example V-11] | 0.244 | 3.7 | 0.193 | 0.61 | 3.33
